“Also recorded” adds a separate entry of the source. Ends that are not written are not given here.
What was measured:
IL-1β promoter = IL-1β promoter (HT) luciferase gene reporter assay, transient transfection of HeLa-S3 cells with Spi-1 and C/EBPβ expression vectors; assay type: cell-based, human; settings: for inhibition of cooperative transactivation of the IL-1β promoter: HT reporter with Spi-1 and C/EBP, absence of full-length IE2, titrated fragment vector, FIG. 2A
Description: FIGS. 1A-1D depict cooperative transactivation of the IL-1B promoter by Spi-1, C/EBPβ and IE2. FIG. 1A is a schematic of the IL-1B promoter showing two composite Spi-1-C/EBPβ binding sites in proximity to the transcription start site. The full-length promoter (HT) was spliced into a vector containing the gene reporter firefly luciferase and used in transient transfection assays in HeLa-S3 cells. FIG. 1B depicts dose-response of HT reporter to titrated Spi-1 expression vector and a fixed amount of cotransfected C/EBPβ expression vector. FIG. 1C depicts dose-response of HT reporter to titrated C/EBPβ expression vector and a fixed amount of Spi-1 expression vector. FIG. 1D depicts functional cooperativity with IE2. The HT reporter was contransfected with titrated Spi-1 expression vector (open bars) or fixed amount of C/EBPβ expression vector (checkerboard bars), or both C/EBPβ and IE2 expression vectors (hatched bars).
The data shown here are pooled from three independent experiments. […] The indicated transfection groups were con-transfected with titrated amounts of IE2 291-364 or 291-343 expression vectors. […] The experiment described by FIG. 2B is similar to that described by FIG. 2A except that wild type IE2 was also added to the indicated transfection groups. These are pooled data from three independent experiments.
• Cell Culture. HeLa cells (Strain S3) were obtained by ATCC and cultured per their recommendations. Briefly, the cells were grown in Dulbecco modified Eagle medium (DMEM) containing 10% FBS and 0.5% penicillin-streptomycin. Every three days cells were split 1:10 using Trypsin (0.25%) EDTA (0.1%) (Cellgro) to detach the cells. • Reporter Constructs and Expression Vectors. The human IL1B promoter regions (−131+12 and −59/+12 and its mutants (FIG. 1A) were generated by polymerase chain reaction (PCR) and inserted into pGL3-Basic vector (Promega) at Mlu I and BgI II or Hind III sites to construct promoter-luciferase reporter plasmids. The HCMV IE expression vectors pEQ273 and pEQ326 contain the genomic HCMV IE DNA inserted into pGEM1 vector. The plasmids expressing full-length NFIL6 and a truncated version with an internal deletion between the two Spl I restriction sites were constructed by inserting the NFIL6 cDNAs into expression vectors pcDNA3.1 or pcDNA1 (Invitrogen) (Tsukada, J., K. Saito, et al. (1994) Mol Cell Biol 14(11): 7285-97). […] Twenty-four or forty-eight hours after transfection, the activities of luciferase and β-galactosidae activity were determined (using reagents from Promega) to measure promoter activity and allow normalization of luciferase activity in each experiment, respectively. […]

C/EBPβ bZIP domain = target: T1, C/EBPβ bZIP domain (Homo sapiens, UniProt P17676); assay: GST fusion pull-down assay with radiolabeled C/EBPβ bZIP domain probe; assay type: binding; settings: autoradiography, FIG. 5
T1 construct: PCR-amplified fragment of NFIL6 encoding amino acids 269-345 into pcDNA3.1; made in house; host or cells: in vitro translation, rabbit reticulocyte lysate (TNT T7 Quick Coupled, Promega), 35S-methionine label
Protocol: (§1) Interaction of the indicated probes is retained to the control peptides IE2 291-343 and IE2 291-364.
(§2) • Cell Culture. HeLa cells (Strain S3) were obtained by ATCC and cultured per their recommendations. Briefly, the cells were grown in Dulbecco modified Eagle medium (DMEM) containing 10% FBS and 0.5% penicillin-streptomycin. Every three days cells were split 1:10 using Trypsin (0.25%) EDTA (0.1%) (Cellgro) to detach the cells. • Reporter Constructs and Expression Vectors. The human IL1B promoter regions (−131+12 and −59/+12 and its mutants (FIG. 1A) were generated by polymerase chain reaction (PCR) and inserted into pGL3-Basic vector (Promega) at Mlu I and BgI II or Hind III sites to construct promoter-luciferase reporter plasmids. The HCMV IE expression vectors pEQ273 and pEQ326 contain the genomic HCMV IE DNA inserted into pGEM1 vector. The plasmids expressing full-length NFIL6 and a truncated version with an internal deletion between the two Spl I restriction sites were constructed by inserting the NFIL6 cDNAs into expression vectors pcDNA3.1 or pcDNA1 (Invitrogen) (Tsukada, J., K. Saito, et al. (1994) Mol Cell Biol 14(11): 7285-97). The expression vector containing the bZIP region of NFIL6 was constructed by inserting a PCR-amplified fragment of NFIL6 encoding amino acids 269-345 into pcDNA3.1 (Yang, Z., N. Wara-Aswapati, et al. (2000) J Biol Chem 275(28): 21272-7). • Transfections and Reporter Gene Assays. HeLa (S3) cells were transfected with expression vectors and luciferase reporter plasmids using Effectene reagents (Qiagen Inc.). Cells were seeded into 24-well plates 24 hours before transfection. […] Expression from these vectors was confirmed by western blotting. Twenty-four or forty-eight hours after transfection, the activities of luciferase and β-galactosidae activity were determined (using reagents from Promega) to measure promoter activity and allow normalization of luciferase activity in each experiment, respectively. […] Gels were stained with SimplyBlue Safestain (Invitrogen) for protein determination and analyzed for binding using autoradiography. […]

Spi-1 ETS domain = target: T2, Spi-1 ETS domain (Homo sapiens, UniProt P17947); assay: GST fusion pull-down assay with radiolabeled Spi-1 ETS domain probe; assay type: binding; settings: autoradiography, FIG. 5
T2 construct: made in house; host or cells: in vitro translation, rabbit reticulocyte lysate (TNT T7 Quick Coupled, Promega), 35S-methionine label
Protocol: as §1, §2

GFP expression vector = assay: Specificity control: expression of control GFP vector by flow cytometry in HeLa-S3 cells; assay type: cell-based; settings: HeLa-S3, cotransfection, 24 hours, FIG. 4D
Protocol: (§3) FIGS. 4A-4D. […] FIG. 4D is another specificity control showing that a control GFP expression vector was not affected by either IE2 291-343 or IE2 291-364. HeLa-S3 cells were transfected with both a GFP expression vector and cotransfected with either E2 291-343 or IE 291-364 expression vectors and GFP expression analyzed 24 hours later by a fluorescence activated cell sorter.
(§4) Because the IE2 291-364 region was previously mapped as one of three TBP binding sites on IE2, it was possible that the inhibitory function was due to interaction with TBP. To exclude this possibility, the expression of two other genes that contain TATA boxes in their promoters were investigated. First, an observed the expression of C/EBPβ from the expression vector by western blot (FIG. 4C) was conducted. […] Second, His-tagged inhibitors were cotransfected with ev GFP and the geometric mean brightness of transfected cells measured by flow cytometry (FIG. 4D). […] It is believed that the basis for the interaction is localized to residues 315-328 of the IE2 molecule because a variant of IE2 291-364 missing the 315-328 region (delA) lacks binding to Spi-1 ETS domain in a GST fusion pull-down assay (FIG. 5).

IE2 = target: T3, IE2 (Human cytomegalovirus, UniProt P19893); assay: GST fusion pull-down assay with radiolabeled IE2 probe; assay type: binding; settings: autoradiography, FIG. 5
T3 construct: made in house; host or cells: in vitro translation, rabbit reticulocyte lysate (TNT T7 Quick Coupled, Promega), 35S-methionine label
Protocol: as §1, §2

IL-1β promoter reporter = assay: Full-length IL-1β regulatory region luciferase reporter in LPS-stimulated RAW264.7 monocytic cells; assay type: cell-based
Description: FIG. 3 depicts that IE2 291-364 fragment inhibits full-length IL-1β reporter in the monocytic cell line RAW264.7. A luciferase gene reporter was made by splicing the native IL-1β upstream fragment (XT), which contains the enhancer through promoter sequences, upstream of the luciferase gene. This was cotransfected (in titrated doses) with pCDNA 3.1/V5-His empty vector (control) or pCDNA 3.1/V5-His IE2 291-364 by calcium phosphate precipitation into RAW 264.7 cells. To activate the reporter, cells were stimulated with LPS.
FIG. 6 depicts increasing amounts of vector expressing either IE2 291-364Δ315-328 or IE2 291-364 transfected into RAW cells with full length IL-1β regulatory protein as a luciferase reporter. After transient transfection by CaPO4, RAW cell lysates were used for measurement by luminometry and results normalized to β-galactosidase activity introduced by a co-transfected β-galactosidase expression vector to control for transfection efficiency. Values for IE2 291-364Δ315-328 are reported as percentages of relative luciferase activity compared to the wild-type fragment 315-264, as shown.
To further verify the effect of IE2 291-364, a test was conducted in the RAW 264.7 cell line. […] When the RAW 264.7 cell line was treated with the bacterial cell wall product LPS, it produced IL-1β similar to what normal monocytes would do. The IE2-291-364 peptide inhibited IL-1β promoter reporter by about 50% in this system (FIG. 3).
In order to more rigorously test the inhibitory capabilities of the IE2 peptides on IL1B gene expression, a complete monocyte-specific 3.8 kbp regulatory region of the IL1B gene containing both the LPS-responsive enhancer and the cell-type specific Spi-1-dependent promoter (Shirakawa, F., K. Saito, et al. (1993). Mol Cell Biol 13(3): 1332-44) was transfected as a luciferase reporter into LPS-treated RAW264.7 monocyte cells.

C/EBPβ = assay: Specificity control: C/EBPβ expression by western blot of transfected HeLa-S3 lysates; assay type: cell-based; settings: HeLa-S3 cell lysates, FIG. 4C
Protocol: as §3, §4

T1 sequence (P17676 269-345): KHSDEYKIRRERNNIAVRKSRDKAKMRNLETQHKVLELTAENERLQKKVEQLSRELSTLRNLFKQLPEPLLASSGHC
T3 sequence (P19893 whole entry, the tested form may be a part): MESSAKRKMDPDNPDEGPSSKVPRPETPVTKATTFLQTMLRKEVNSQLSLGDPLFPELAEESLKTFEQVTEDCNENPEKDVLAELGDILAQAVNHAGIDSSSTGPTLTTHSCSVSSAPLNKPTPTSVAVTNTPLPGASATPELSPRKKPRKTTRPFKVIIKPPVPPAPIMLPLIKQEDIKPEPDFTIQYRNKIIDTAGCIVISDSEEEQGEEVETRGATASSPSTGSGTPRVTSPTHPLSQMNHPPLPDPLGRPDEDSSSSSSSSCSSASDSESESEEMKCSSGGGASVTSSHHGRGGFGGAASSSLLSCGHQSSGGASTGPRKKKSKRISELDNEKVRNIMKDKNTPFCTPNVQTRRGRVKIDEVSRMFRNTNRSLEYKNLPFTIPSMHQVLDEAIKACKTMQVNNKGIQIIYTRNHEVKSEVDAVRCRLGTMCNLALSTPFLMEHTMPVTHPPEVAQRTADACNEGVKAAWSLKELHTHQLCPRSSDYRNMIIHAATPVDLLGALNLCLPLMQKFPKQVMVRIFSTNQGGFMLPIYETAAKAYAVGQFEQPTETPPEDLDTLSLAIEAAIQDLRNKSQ

| Substance | interaction with C/EBPβ bZIP domain probe (C/EBPβ bZIP domain) | inhibition of cooperative transactivation of the IL-1β promoter (IL-1β promoter) | interaction with Spi-1 ETS domain probe (Spi-1 ETS domain) | effect on GFP expression from control GFP vector (GFP expression vector) | interaction with IE2 probe (IE2) | also measured |
| --- | --- | --- | --- | --- | --- | --- |
| GFP-IE2 291-343 (SSHHGRGGFGGAASSSLLSCGHQSSGGASTGPRKKKSKRISELDNEKVRNIMK; also: GFP fusion) |  |  |  |  |  | inhibition of IL-1β promoter (HT reporter) activity by GFP fusion product (IL-1β promoter; Spi-1 and C/EBPβ transactivation, GFP-expressing cells purified by FACS, FIG. 4B): inhibition of IL-1β promoter activity |
| IE2 291-343: hCMV IE2 protein amino acid residues 291-343 | retained | inhibited | retained | not affected | retained |  |
| IE2 291-364: hCMV IE2 protein amino acid residues 291-364, expressed from vector (His tag or GST fusion) | retained | inhibited | retained | not affected | retained | dose dependence of inhibition of 3.8 kbp IL1B regulatory region reporter activity (IL-1β promoter reporter; LPS-treated RAW264.7, His-tagged expression vector, FIG. 6): dose-dependent inhibition; inhibition of full-length IL-1β reporter (XT) (IL-1β promoter reporter; RAW264.7, LPS stimulated, cotransfected pCDNA 3.1/V5-His IE2 291-364, FIG. 3): inhibits; inhibition of IL-1β promoter reporter (IL-1β promoter reporter; RAW 264.7 cells treated with LPS, FIG. 3): about 50%; effect on expression of C/EBPβ protein (western blot) (C/EBPβ): does not inhibit |
| delA (SSHHGRGGFGGAASSSLLSCGHQSRISELDNEKVRNIMKDKNTPFCTPNVQTRRGRVKID; not fully specified; cysteine pairing not given here) [reference compound] | loss of interaction |  | lacks binding; also recorded: loss of interaction |  | loss of interaction |  |
| full length wild-type IE2: CMV encoded transactivator Immediate Early 2 protein, full length |  |  |  |  |  | increase of IL-1β promoter reporter activity (IL-1β promoter; full length wild-type IE2 added to Spi-1 and C/EBPβ transfection, HeLa-S3, FIG. 1D): 4-10 fold |
